Source: the NIST ThermoML archive (doi:10.1021/je900596d)

Conditions: for mass density: Vibrating tube method

FC(F)=C(F)C(F)(F)F [hexafluoropropene]
Conditions	mass density [kg/m3]	vapor or sublimation pressure [kPa]
355.18 K, 9543 kPa, Liquid	1138.93	–
355.18 K, 9592.9 kPa, Liquid	1139.78	–
355.18 K, 9645.5 kPa, Liquid	1140.58	–
355.18 K, 9695.7 kPa, Liquid	1141.39	–
355.18 K, 9747.1 kPa, Liquid	1142.23	–
355.18 K, 9796.2 kPa, Liquid	1143.06	–
355.18 K, 9846.2 kPa, Liquid	1143.79	–
355.18 K, 9896.5 kPa, Liquid	1144.79	–
355.18 K, 9947.2 kPa, Liquid	1145.37	–
355.18 K, 9998.1 kPa, Liquid	1146.19	–
355.24 K, Liquid, Closed cell (Static) method	–	2903
355.27 K, 1.7 kPa, Fluid (supercritical or subcritical phases)	0.1	–
355.27 K, 2.5 kPa, Fluid (supercritical or subcritical phases)	0.14	–
355.27 K, 3.1 kPa, Fluid (supercritical or subcritical phases)	0.19	–
355.27 K, 3.6 kPa, Fluid (supercritical or subcritical phases)	0.23	–
355.27 K, 4.8 kPa, Fluid (supercritical or subcritical phases)	0.28	–
355.27 K, 5.8 kPa, Fluid (supercritical or subcritical phases)	0.37	–
355.27 K, 6.4 kPa, Fluid (supercritical or subcritical phases)	0.38	–
355.27 K, 7.6 kPa, Fluid (supercritical or subcritical phases)	0.44	–
355.27 K, 8.8 kPa, Fluid (supercritical or subcritical phases)	0.47	–
355.27 K, 9.4 kPa, Fluid (supercritical or subcritical phases)	0.5	–
355.27 K, 10 kPa, Fluid (supercritical or subcritical phases)	0.52	–
355.27 K, 11.3 kPa, Fluid (supercritical or subcritical phases)	0.61	–
355.27 K, 12.5 kPa, Fluid (supercritical or subcritical phases)	0.64	–
355.27 K, 13.7 kPa, Fluid (supercritical or subcritical phases)	0.67	–
355.27 K, 15 kPa, Fluid (supercritical or subcritical phases)	0.66	–
355.27 K, 16 kPa, Fluid (supercritical or subcritical phases)	0.83	–
355.27 K, 18.5 kPa, Fluid (supercritical or subcritical phases)	0.93	–
355.27 K, 19.9 kPa, Fluid (supercritical or subcritical phases)	1.04	–
355.27 K, 21.2 kPa, Fluid (supercritical or subcritical phases)	1.09	–
355.27 K, 22.2 kPa, Fluid (supercritical or subcritical phases)	1.15	–
355.27 K, 23.4 kPa, Fluid (supercritical or subcritical phases)	1.24	–
355.27 K, 24.5 kPa, Fluid (supercritical or subcritical phases)	1.28	–
355.27 K, 25.7 kPa, Fluid (supercritical or subcritical phases)	1.37	–
355.27 K, 26.7 kPa, Fluid (supercritical or subcritical phases)	1.39	–
355.27 K, 27.9 kPa, Fluid (supercritical or subcritical phases)	1.42	–
355.27 K, 29.2 kPa, Fluid (supercritical or subcritical phases)	1.46	–
355.27 K, 30.3 kPa, Fluid (supercritical or subcritical phases)	1.62	–
355.27 K, 31.3 kPa, Fluid (supercritical or subcritical phases)	1.64	–
355.27 K, 32.3 kPa, Fluid (supercritical or subcritical phases)	1.71	–
355.27 K, 34.6 kPa, Fluid (supercritical or subcritical phases)	1.82	–
355.27 K, 37.4 kPa, Fluid (supercritical or subcritical phases)	1.95	–
355.27 K, 41.7 kPa, Fluid (supercritical or subcritical phases)	2.14	–
355.27 K, 47.8 kPa, Fluid (supercritical or subcritical phases)	2.49	–
355.27 K, 53.6 kPa, Fluid (supercritical or subcritical phases)	2.8	–
355.27 K, 58 kPa, Fluid (supercritical or subcritical phases)	3.03	–
355.27 K, 62.5 kPa, Fluid (supercritical or subcritical phases)	3.28	–
355.27 K, 67.1 kPa, Fluid (supercritical or subcritical phases)	3.54	–
355.27 K, 71.8 kPa, Fluid (supercritical or subcritical phases)	3.72	–
355.27 K, 76 kPa, Fluid (supercritical or subcritical phases)	4.09	–
355.27 K, 80.2 kPa, Fluid (supercritical or subcritical phases)	4.21	–
355.27 K, 84.7 kPa, Fluid (supercritical or subcritical phases)	4.42	–
355.27 K, 89.7 kPa, Fluid (supercritical or subcritical phases)	4.7	–
355.27 K, 94.5 kPa, Fluid (supercritical or subcritical phases)	4.96	–
355.27 K, 99.2 kPa, Fluid (supercritical or subcritical phases)	5.14	–
355.27 K, 108.4 kPa, Fluid (supercritical or subcritical phases)	5.69	–
355.27 K, 121.7 kPa, Fluid (supercritical or subcritical phases)	6.32	–
355.27 K, 136.3 kPa, Fluid (supercritical or subcritical phases)	7.14	–
355.27 K, 150.1 kPa, Fluid (supercritical or subcritical phases)	7.91	–
355.27 K, 175.9 kPa, Fluid (supercritical or subcritical phases)	9.29	–
355.27 K, 189 kPa, Fluid (supercritical or subcritical phases)	9.98	–
355.27 K, 202.9 kPa, Fluid (supercritical or subcritical phases)	10.67	–
355.27 K, 215.8 kPa, Fluid (supercritical or subcritical phases)	11.37	–
355.27 K, 229.6 kPa, Fluid (supercritical or subcritical phases)	12.15	–
355.27 K, 243.8 kPa, Fluid (supercritical or subcritical phases)	12.89	–
355.27 K, 256.5 kPa, Fluid (supercritical or subcritical phases)	13.54	–
355.27 K, 269.4 kPa, Fluid (supercritical or subcritical phases)	14.27	–
355.27 K, 282.8 kPa, Fluid (supercritical or subcritical phases)	15.02	–
355.27 K, 296.5 kPa, Fluid (supercritical or subcritical phases)	15.74	–
355.27 K, 310.2 kPa, Fluid (supercritical or subcritical phases)	16.52	–
355.27 K, 323.9 kPa, Fluid (supercritical or subcritical phases)	17.3	–
355.27 K, 337.3 kPa, Fluid (supercritical or subcritical phases)	18.03	–
355.27 K, 350.9 kPa, Fluid (supercritical or subcritical phases)	18.72	–
355.27 K, 364 kPa, Fluid (supercritical or subcritical phases)	19.44	–
355.27 K, 377.5 kPa, Fluid (supercritical or subcritical phases)	20.18	–
355.27 K, 390.9 kPa, Fluid (supercritical or subcritical phases)	20.91	–
355.27 K, 410.7 kPa, Fluid (supercritical or subcritical phases)	22.1	–
355.27 K, 423.7 kPa, Fluid (supercritical or subcritical phases)	22.78	–
355.27 K, 436.7 kPa, Fluid (supercritical or subcritical phases)	23.55	–
355.27 K, 449.9 kPa, Fluid (supercritical or subcritical phases)	24.26	–
355.27 K, 463 kPa, Fluid (supercritical or subcritical phases)	25.02	–
355.27 K, 475.5 kPa, Fluid (supercritical or subcritical phases)	25.74	–
355.27 K, 489.9 kPa, Fluid (supercritical or subcritical phases)	26.57	–
355.27 K, 511.2 kPa, Fluid (supercritical or subcritical phases)	27.76	–
355.27 K, 534.4 kPa, Fluid (supercritical or subcritical phases)	29.14	–
355.27 K, 558.1 kPa, Fluid (supercritical or subcritical phases)	30.53	–
355.27 K, 570.3 kPa, Fluid (supercritical or subcritical phases)	31.19	–
355.27 K, 593.4 kPa, Fluid (supercritical or subcritical phases)	32.6	–
355.27 K, 605.4 kPa, Fluid (supercritical or subcritical phases)	33.29	–
355.27 K, 629.1 kPa, Fluid (supercritical or subcritical phases)	34.75	–
355.27 K, 652.5 kPa, Fluid (supercritical or subcritical phases)	36.04	–
355.27 K, 675.6 kPa, Fluid (supercritical or subcritical phases)	37.5	–
355.27 K, 698.5 kPa, Fluid (supercritical or subcritical phases)	38.93	–
355.27 K, 710.6 kPa, Fluid (supercritical or subcritical phases)	39.6	–
355.27 K, 733.2 kPa, Fluid (supercritical or subcritical phases)	40.98	–
355.27 K, 755.9 kPa, Fluid (supercritical or subcritical phases)	42.45	–
355.27 K, 778.4 kPa, Fluid (supercritical or subcritical phases)	43.82	–
355.27 K, 800.7 kPa, Fluid (supercritical or subcritical phases)	45.25	–
355.27 K, 822.7 kPa, Fluid (supercritical or subcritical phases)	46.65	–
355.27 K, 844.7 kPa, Fluid (supercritical or subcritical phases)	48.08	–
355.27 K, 866.4 kPa, Fluid (supercritical or subcritical phases)	49.39	–
355.27 K, 887.6 kPa, Fluid (supercritical or subcritical phases)	50.79	–
355.27 K, 909.3 kPa, Fluid (supercritical or subcritical phases)	52.17	–
355.27 K, 921.7 kPa, Fluid (supercritical or subcritical phases)	53.01	–
355.27 K, 942.8 kPa, Fluid (supercritical or subcritical phases)	54.34	–
355.27 K, 963 kPa, Fluid (supercritical or subcritical phases)	55.68	–
355.27 K, 985.5 kPa, Fluid (supercritical or subcritical phases)	57.29	–
355.27 K, 1007.7 kPa, Fluid (supercritical or subcritical phases)	58.71	–
355.27 K, 1053.4 kPa, Fluid (supercritical or subcritical phases)	61.79	–
355.27 K, 1076.3 kPa, Fluid (supercritical or subcritical phases)	63.38	–
355.27 K, 1097.4 kPa, Fluid (supercritical or subcritical phases)	64.83	–
355.27 K, 1119.1 kPa, Fluid (supercritical or subcritical phases)	66.35	–
355.27 K, 1140.9 kPa, Fluid (supercritical or subcritical phases)	67.89	–
355.27 K, 1162.7 kPa, Fluid (supercritical or subcritical phases)	69.42	–
355.27 K, 1184.6 kPa, Fluid (supercritical or subcritical phases)	70.94	–
355.27 K, 1205.7 kPa, Fluid (supercritical or subcritical phases)	72.55	–
355.27 K, 1226.6 kPa, Fluid (supercritical or subcritical phases)	74.03	–
355.27 K, 1248.5 kPa, Fluid (supercritical or subcritical phases)	75.63	–
355.27 K, 1268.8 kPa, Fluid (supercritical or subcritical phases)	77.12	–
355.27 K, 1291.7 kPa, Fluid (supercritical or subcritical phases)	78.82	–
355.27 K, 1314.5 kPa, Fluid (supercritical or subcritical phases)	80.53	–
355.27 K, 1336.6 kPa, Fluid (supercritical or subcritical phases)	82.25	–
355.27 K, 1358.9 kPa, Fluid (supercritical or subcritical phases)	83.95	–
355.27 K, 1380.8 kPa, Fluid (supercritical or subcritical phases)	85.69	–
355.27 K, 1401.7 kPa, Fluid (supercritical or subcritical phases)	87.28	–
355.27 K, 1423 kPa, Fluid (supercritical or subcritical phases)	89.04	–
355.27 K, 1445 kPa, Fluid (supercritical or subcritical phases)	90.76	–
355.27 K, 1465.4 kPa, Fluid (supercritical or subcritical phases)	92.28	–
355.27 K, 1486.6 kPa, Fluid (supercritical or subcritical phases)	94.07	–
355.27 K, 1509.1 kPa, Fluid (supercritical or subcritical phases)	95.9	–
355.27 K, 1531 kPa, Fluid (supercritical or subcritical phases)	97.69	–
355.27 K, 1552.1 kPa, Fluid (supercritical or subcritical phases)	99.45	–
355.27 K, 1573.2 kPa, Fluid (supercritical or subcritical phases)	101.27	–
